Experimental data reported in US20220370416A1, “COMPOUNDS AND METHODS FOR TARGETED DEGRADATION OF KRAS” (Arvinas Operations, Inc., priority 2020, published 2022).

Experiments:
HiBit-KRAS^G12C [1] = target: T1, HiBit-KRAS^G12C (Homo sapiens, UniProt P01116, G12C); test: HiBit degradation assay in MiaPaCa-2 HiBit-KRas^G12C cells; format: cell-based; details: 24 hours; for Dmax: MIA PaCa-2, MiaPaCa-2 HiBit-KRas^G12C cells, maximum degradation; for DC50: read-out: KRas^G12C-HiBiT (MiaPaCa; 0.5% DMSO) IC50, MiaPaCa-2 HiBit-KRas^G12C cells
T1 sequence (P01116 1-186 isoform P01116-2 G12C limits assumed): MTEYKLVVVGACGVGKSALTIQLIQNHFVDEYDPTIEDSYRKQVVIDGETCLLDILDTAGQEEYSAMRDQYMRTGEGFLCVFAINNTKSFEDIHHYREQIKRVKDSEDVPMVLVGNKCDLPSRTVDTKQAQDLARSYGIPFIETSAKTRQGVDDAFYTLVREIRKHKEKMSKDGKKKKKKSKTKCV
In short: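 MiaPaCa-2 cells with CRISPR N-terminal HiBit knock-in on one endogenous KRAS^G12C allele, treated 24 hours at 37° C with compound titrated 10 μM to 20 nM (0.1% or 0.5% DMSO). Lytic HiBit luminescence normalized to DMSO, 4-parameter fit giving DC50 and Dmax; points cytotoxic to […] cells by alamar blue excluded.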

HiBit-KRAS^G12C [2] = target: T1, HiBit-KRAS^G12C; test: HiBit degradation assay in SW1573 HiBit-KRas^G12C cells; format: cell-based; set-up: expressed in transfected cells; host or cells: SW1573 (clone E6), modified pcDNA3.1 vector, TK promoter; details: 24 hours; for Dmax: SW1573, SW1573 HiBit-KRas^G12C; for DC50: SW1573 HiBit-KRas^G12C
In short: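 SW1573 cells stably expressing N-terminally HiBit-tagged KRAS G12C, under the TK promoter, were treated 24 h at 37 °C with 10 μM to 20 nM compound in 0.1% or 0.5% DMSO. Residual HiBit luminescence normalised to DMSO and fitted with a 4-parameter model for DC50 and Dmax. Points with ≥50% viability loss (alamar blue) excluded.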

[3] = 0.1% DMSO, read-out: KRas^G12C-HiBiT (MiaPaCa; 0.1% DMSO) DMax
[4] = 0.5% DMSO, read-out: KRas^G12C-HiBiT (MiaPaCa; 0.5% DMSO) DMax
[5] = 0.1% DMSO, read-out: KRas^G12C-HiBit (SW1573; 0.1% DMSO) Dmax**
[6] = 0.5% DMSO, read-out: KRas^G12C-HiBiT (SW1573; 0.5% DMSO) Dmax**
[7] = 0.1% DMSO, read-out: KRas^G12C-HIBit (SW1573; 0.1% DMSO) DC50*
[8] = read-out: KRas^G12C-HiBiT (SW1573; 0.5% DMSO) IC50***, 0.5% DMSO

Dmax (HiBit-KRAS^G12C [1]; [3]) | Dmax (HiBit-KRAS^G12C [1]; [4]) | Dmax (HiBit-KRAS^G12C [2]; [5]) | Dmax (HiBit-KRAS^G12C [2]; [6]) | DC50 (HiBit-KRAS^G12C [2]; [7]) | DC50 (HiBit-KRAS^G12C [1]; 0.5% DMSO) | DC50 (HiBit-KRAS^G12C [2]; [8]) | Structure (SMILES)
< 35% | 35 to 70% | 35 to 70% | 35 to 70% | 100 to 1000 nM | – | – | C=CC(=O)N1C[C@H](C)N(c2nc(OCCN3CCC(COCC(=O)N[C@H](C(=O)N4C[C@H](O)C[C@H]4C(=O)N[C@@H](C)c4ccc(-c5scnc5C)cc4)C(C)(C)C)CC3)nc3c(F)c(-c4cc(O)cc5ccccc45)c(Cl)cc23)C[C@H]1C [Compound 36, (2S,4R)-1-[(2S)-2-[2-({1-[2-({6-chloro-4-[(2S,5R)-2,5-dimethyl-4-(prop-2-enoyl)piperazin-1-yl]-8-fluoro-7-(3-hydroxynaphthalen-1-yl)quinazolin-2-yl}oxy)ethyl]piperidin-4-yl}methoxy)acetamido]-3,3-dimethylbutanoyl]-4-hydroxy-N-[(1S)-1-[4-(4-methyl-1,3-thiazol-5-yl)phenyl]ethyl]pyrrolidine-2-carboxamide]
35 to 70% | > 70% | > 70% | > 70% | 100 to 1000 nM | – | – | C=C(F)C(=O)N1CCN(c2nc(OCCN3CCC(OCCOc4cc([C@H](C(=O)N5C[C@H](O)C[C@H]5C(=O)N[C@@H](C)c5ccc(-c6scnc6C)cc5)C(C)C)on4)CC3)nc3c(F)c(-c4cc(O)cc5ccccc45)c(Cl)cc23)C[C@@H]1CC#N [Compound 16, (2S,4R)-1-[(2R)-2-{3-[2-({1-[2-({6-chloro-4-[(3S)-3-(cyanomethyl)-4-(2-fluoroprop-2-enoyl)piperazin-1-yl]-8-fluoro-7-(3-hydroxynaphthalen-1-yl)quinazolin-2-yl}oxy)ethyl]piperidin-4-yl}oxy)ethoxy]-1,2-oxazol-5-yl}-3-methylbutanoyl]-4-hydroxy-N-[(1S)-1-[4-(4-methyl-1,3-thiazol-5-yl)phenyl]ethyl]pyrrolidine-2-carboxamide]
– | < 35% | – | – | – | < 100 nM | > 1000 nM | C=CC(=O)N1CCN(c2nc(OCCN3CCC(COc4cc([C@H](C(=O)N5C[C@@H](O)C[C@H]5C(=O)N[C@@H](C)c5ccc(-c6scnc6C)cc5)C(C)C)on4)CC3)nc3c(F)c(-c4cc(O)cc5ccccc45)c(Cl)cc23)C[C@@H]1CC#N (atropisomer, axis not shown) [Compound 106, (2S,4S)-1-[(2R)-2-[3-({1-[2-({6-chloro-4-[(3S)-3-(cyanomethyl)-4-(prop-2-enoyl)piperazin-1-yl]-8-fluoro-7-(3-hydroxynaphthalen-1-yl)quinazolin-2-yl}oxy)ethyl]piperidin-4-yl}methoxy)-1,2-oxazol-5-yl]-3-methylbutanoyl]-4-hydroxy-N-[(1S)-1-[4-(4-methyl-1,3-thiazol-5-yl)phenyl]ethyl]pyrrolidine-2-carboxamide]
– | – | – | < 35% | – | > 1000 nM | 100 to 1000 nM | C=CC(=O)N1CCN(c2nc(OCCN3CCC4(CC3)CN(c3cc([C@@H](C(=O)N5C[C@H](O)C[C@H]5C(=O)N[C@@H](C)c5ccc(-c6scnc6C)cc5)C(C)C)on3)C4)nc3c(F)c(-c4cc(O)cc5ccccc45)c(Cl)cc23)C[C@@H]1CC#N [Compound 137, (2S,4R)-1-[(2S)-2-(3-{7-[2-({6-chloro-4-[(3S)-3-(cyanomethyl)-4-(prop-2-enoyl)piperazin-1-yl]-8-fluoro-7-(3-hydroxynaphthalen-1-yl)quinazolin-2-yl}oxy)ethyl]-2,7-diazaspiro[3.5]nonan-2-yl}-1,2-oxazol-5-yl)-3-methylbutanoyl]-4-hydroxy-N-[(1S)-1-[4-(4-methyl-1,3-thiazol-5-yl)phenyl]ethyl]pyrrolidine-2-carboxamide]
